Results taken from patent US20080213813A1, “Histone deacetylase inhibitor and use thereof” (priority 2002, published 2008).

Tests used:
Assay type in all cases: cell-based, human
HeLa cells [1] = assay: Microtubule stability against Colcemid in HeLa cells (immunofluorescence); settings: pretreated (1 μM 16 hours, or 200 nM oligonucleotide 24 hours), then 1 μM Colcemid 15 minutes, FIG. 11
Experimental: (3) the introduction of HDAC6 antisense oligonucleotide No. 16 at a final concentration of 200 nM with OligofectAMINE followed by a 24-hour culture.
Then, Lab-TekII Chambered Coverglass was washed with 0.1 M PIPES (pH 6.9), the cells were fixed in 0.5% glutaraldehyde/0.1 PIPES (pH 6.9) for 10 minutes, washed three times with PBS, permealized three times with 0.5% Triton X100/PBS for 5 minutes each, washed three times with PBS, treated three times with 2.5 mg/ml sodium borohydride/50% ethanol for 10 minutes each, washed three times with PBS, blocked with 10% normal goat serum/PBS, reacted with a primary antibody rat anti-α-tubulin monoclonal antibody (MAB1864; CHEMICON)/PBS for 1 hour, washed three times with 0.1% Tween 20/PBS, reacted with a second antibody Alexa Fluor 488-conjugated anti-rat IgG (Molecular Probe)/PBS for 30 minutes, and washed three times with 0.1% Tween 20/PBS, and then examined under a conforcal laser scanning microscope (Carl Zeiss).

HeLa cells [2] = assay: Changes in microtubule structure in HeLa cells (immunofluorescence, confocal microscopy); settings: FIG. 5
Experimental: HeLa cells were plated on the Lab-TekII Chambered Coverglass (Nunc), and were subjected to:
(1) treatment for 16 hours with 1 μM Paclitaxel (Sigma), a microtubule polymerizing agent;
(3) the introduction of HDAC6 antisense oligonucleotide No. 4 at a final concentration of 200 nM with OligofectAMINE followed by a 24-hour culture.
Then, Lab-TekII Chambered Coverglass was washed with 0.1 M PIPES (pH 6.9), the cells were fixed in 0.5% glutaraldehyde/0.1 M PIPES (pH 6.9) for 10 minutes, washed three times with PBS, permealized three times with 0.5% Triton X100/PBS for 5 minutes each, washed three times with PBS, treated three times with 2.5 mg/ml sodium borohydride/50% ethanol for 10 minutes each, washed three times with PBS, blocked with 10% normal goat serum/PBS, reacted with a primary antibody (a) anti-acetylated α-tubulin antibody (clone 6-11B-1, Sigma) or (b) anti-α-tubulin antibody (clone DM lA, Sigma)/PBS for 1 hour, washed three times with 0.1% Tween 20/PBS, reacted with a second antibody Alexa Fluor 488-conjugated anti-mouse IgG (Molecular Probe)/PBS for 30 minutes, and washed three times with 0.1% Tween 20/PBS, and then examined under a conforcal laser scanning microscope (Carl Zeiss).

HDAC6 [3] = assay: Suppression of HDAC6 protein expression in HeLa cells (Western blot); settings: for production of HDAC6, changing treatment time: 200 nM, 24, 30, 36 and 48 hours, FIG. 4
acetylated α-tubulin = assay: Acetylation of α-tubulin in HeLa cells (Western blot); settings: 200 nM, 24, 30, 36 and 48 hours, FIG. 4
Experimental: The each synthesized antisense oligonucleotide was dissolved in sterile water, and was introduced into HeLa cells using the OligofectAMINE (Invitrogen) according to an attached protocol. The 1.5×10^5 HeLa cells were plated in a 6-well plate, the final concentration of antisense oligonucleotide was set at 200 nM, and OligofectAMINE was used at 3 μl/well.
[…] After the cells were lysed with a SDS-PAGE sample buffer (BPB-free) and protein concentration was determined, the cell lysate at 25 μg/lane was separated by SDS-PAGE, transferred to a PVDF membrane, and immunoblotted with anti-acetylated α-tubulin antibody (clone 6-11B-1, Sigma), anti-α-tubulin antibody (clone DMlA, Sigma) or anti-HDAC6 antibody (H-300, Santa Cruz).

HeLa cells [4] = assay: Depolarization of mitochondrial membrane potential in HeLa cells (JC-1, FACS); settings: 200 nM, 24, 36 or 48 hours, FIG. 7
Experimental: HeLa cells (1.5×10^5/well) were plated into a 6-well plate with MEM medium containing 10% FCS and 1× nonessential amino acids. HDAC6 antisense oligonucleotide No. 4, 5 or 16 at the final concentration of 200 nM or the control oligonucleotide was introduced into the cells with OligofectAMINE at 3 μl/well, and the cells were treated for 24 hours, 36 hours or 48 hours. Mitochondrial potential sensor JC-1 (Molecular Probes) was added to the medium at the final concentration of 10 μg/ml and the cells were further caltivated at 37° C. for 10 minutes. Ten minutes later, the cells were detached by trypsin treatment and collected, and analyzed using the FACS caliber (Becton Dickinson).
Therefore, in order to detect the cells in which mitochondrial membrane potential is depolarized, the ratio of green fluorescence-positive cells was graphically shown and used as an index of apoptosis.

HeLa cells [5] = assay: Induction of apoptosis in HeLa cells (Annexin V-PE, FACS); settings: 200 nM, 24 to 48 hours, FIG. 6
Experimental: HeLa cells (1.5×10^5/well) were plated into a 6-well plate with MEM medium containing 10% FCS and 1× nonessential amino acids. HDAC6 antisense oligonucleotide No. 4, 5, 6 or 16 at the final concentration of 200 nM or the control oligonucleotide was introduced into the cells with OligofectAMINE at 3 μl/well, and the cells were treated for 24 hours, 30 hours, 36 hours, or 48 hours. The cells were detached by trypsin treatment and collected, and stained with Annexin V-PE (Becton Dickinson) according to a protocol attached, and analyzed using the FACS caliber (Becton Dickinson).
Thus, the collected cells were washed with PBS, suspended in 100 μl of the binding buffer (Becton Dickinson), to which suspension 5 μl of Annexin V-PE was added and incubated for 15 minutes, and the binding buffer was added to make a total volume of 500 μl. This was subjected to FACS analysis.

HDAC6 [6] = assay: Suppression of HDAC6 protein expression in HepG2, SW480, LoVo and Calu-1 cells (Western blot); settings: HepG2, SW480, LoVo, Calu-1 cells; 200 nM, 48 hours; FIG. 8

`CC(=O)O[C@H]1C(=O)[C@@]2(C)[C@H]([C@H](OC(=O)c3ccccc3)[C@]3(O)C[C@H](OC(=O)[C@H](O)[C@@H](NC(=O)c4ccccc4)c4ccccc4)C(C)=C1C3(C)C)[C@]1(OC(C)=O)CO[C@@H]1C[C@@H]2O` [Paclitaxel] was tested, and the “microtubules after Colcemid in pretreated cells” value (HeLa cells [1]) was “the remaining of the polymerized microtubules was observed”, the “microtubule structure, stained with anti-acetylated α-tubulin antibody” value (HeLa cells [2]; 1 μM, 16 hours) was “hyperpolymerized microtubules from the centromere were observed” and the “microtubule structure, stained with anti-α-tubulin antibody” value (HeLa cells [2]; 1 μM, 16 hours) was “hyperpolymerized microtubules were observed in the periphery of the nucleus”.

With `CC(/C=C/C(=O)NO)=C\[C@@H](C)C(=O)c1ccc(N(C)C)cc1` [Trichostatin A] the “microtubules after Colcemid in pretreated cells” value (HeLa cells [1]) was “the remaining of the polymerized microtubules was observed” and the microtubule structure (HeLa cells [2]; 1 μM Trichostatin A 16 hours or 200 nM antisense oligonucleotide 24 hours) was “images of polymerized microtubules were observed throughout the cytoplasm”.

In the case of “antisense oligonucleotide 5: phosphorothioated HDAC6 antisense oligonucleotide GCTGCCTGGT TGTGGTGGAA, complementary to a sequence downstream of ATG (antisense GCTGCCTGGTTGTGGTGGAA; all phosphorothioate, sugars by position and methylation of C not given here)”, the “production of HDAC6, changing treatment time” value (HDAC6 [3]) is reported as “inhibits the production of HDAC6”, the “acetylation of α-tubulin, changing treatment time” value (acetylated α-tubulin) is reported as “the acetylation of α-tubulin was enhanced at any time” and the “mitochondrial depolarization judged by JC-1 staining” value (HeLa cells [4]) is reported as “induces mitochondrial depolarization”. For the same compound, the “apoptosis judged by Annexin V positivity” value (HeLa cells [5]) was “induces apoptosis”.

In the case of “antisense oligonucleotide 6: phosphorothioated HDAC6 antisense oligonucleotide TTTATTACAT ATGCAACCTT, upstream sequence comprising the polyadenylation signal; used as negative control (antisense TTTATTACATATGCAACCTT; all phosphorothioate, sugars by position and methylation of C not given here)”, the “production of HDAC6, changing treatment time” value (HDAC6 [3]) is reported as “inhibits the production of HDAC6” and the “acetylation of α-tubulin, changing treatment time” value (acetylated α-tubulin) is reported as “enhances the acetylation of α-tubulin”.

In the case of “control oligo: control oligonucleotide CCTCTTACCT CAGTTACAAT, from abnormal splicing site 705 of β globin pre-mRNA; no specific target in normal cells (antisense CCTCTTACCTCAGTTACAAT; all phosphorothioate, sugars by position and methylation of C not given here)”, the “amount of expressed HDAC6 protein” value (HDAC6 [3]; 200 nM oligonucleotide, 48 hours after introduction, FIG. 3) is reported as “did not have any activity of causing the reduction of HDAC6 protein expression” and the “amount of expressed HDAC6” value (HDAC6 [6]) is reported as “did not have any activity of causing the reduction of HDAC6 protein expression”.
